“Also recorded” adds a separate entry of the source.

These results are taken from PMC9229798, “Antioxidant Activity and Cytotoxicity of Aromatic Oligosulfides” (Molecules, 2022).

Assay [1] is described as follows: NBT assay, superoxide radical anion formation by xanthine oxidase. The assay is classed as biochemical. The settings on record: sample solution 5 mM in DMSO. From the text: The superoxide radical anion was generated in the xanthine/xanthine oxidase enzymatic system and reduced nitroblue tetrazolium (NBT) to an intensely blue colored diformazan (λ = 560 nm). There was a decrease in the concentration of diformazan in the presence of a potential antioxidant that absorbs O2^–•. […] Despite the fact that compounds 2 and 6 were structurally similar to the corresponding disulfides 3 and 4, they were not active in this assay.
EDTA, xanthine, bovine serum albumin, nitroblue tetrazolium, and xanthine oxidase (25 MU) were purchased from Sigma Aldrich, Burlington, MA, USA. The superoxide anions were generated enzymatically by the xanthine oxidase system. The reaction mixture consisted of 2.70 mL of 40 mM sodium carbonate buffer containing 0.1 mM EDTA (pH 10.0), 0.06 mL of 10 mM xanthine, 0.03 mL of 0.5% bovine serum albumin, 0.03 mL of 2.5 mM nitroblue tetrazolium, and 0.06 mL of the sample solution in DMSO at the concentration of 5 mM. An amount of 0.12 mL of xanthine oxidase (0.04 units) was added to the mixture at 25 °C, and the absorbance at 560 nm (by formation of blue formazan) was measured by microplate spectrophotometer for 60 s. A control experiment was carried out by replacing the sample solution with the same amount of DMSO.
Inhibition I (%) = [(1 − Ai/A0) × 100%], where Ai is the absorbance in the presence of the testing compound, A0 is the absorbance of the blank solution [78]. All experiments were performed three times.

The next assay concerns WI-38. The assay can be described thus: MTT assay. The format is cell-based. The settings on record: Homo sapiens, 72 h, non-tumourigenic cells. The protocol:
The antiproliferative activity of aromatic oligosulfides 1–6 was determined against human cell lines, including colon carcinoma HCT-116, breast adenocarcinoma MCF-7, lung adenocarcinoma A-549, colorectal carcinoma SW-480, and non-tumourigenic WI-38, using the MTT assay (Table 4). […] However, some selectivity for cancer cells was evident and the IC50 values for non-tumourigenic cells were slightly higher for compounds 1 and 2.
Cell survival was determined by the MTT [3-(4,5-[…])-2,5-diphenyl tetrazolium bromide] assay by Niks method with small modifications. HCT-116 (colon carcinoma), MCF-7 (breast adenocarcinoma), A-549 (lung adenocarcinoma) and SW-480 (colorectal carcinoma) human cancer cell lines and WI-38 (cell line composed of fibroblasts) were cultured in DMEM (PanEco, Moscow, Russia) with Glutamin (PanEco, Moscow, Russia) and antibiotics (PanEco, Moscow, Russia) in CO2 (5%) at 37 °C. The compounds were dissolved (20 mM) in DMSO and then added to the cell culture medium at the required concentration with a maximum DMSO content of 0.5 v/v%. At these concentrations, DMSO had no effect on cell viability, as was shown in the control experiments. Cells were cultured in 96-well plates (7000 cells/well) and treated with various concentrations (from […]) of the test compounds as well as doxorubicin at 37 °C for 72 h. Cell viability was determined using the MTT assay, which quantified dehydrogenase activity. Then, the cells were incubated at 37 °C for 50 min with a solution of MTT ([…], 5 mg × mL^−1) (Sigma-Aldrich, St. Louis, MO, USA). The supernatant was discarded, and cells were dissolved in DMSO ([…]). The optical density of the solution was measured at 570 nm with use of a multiwall-plate reader (Anthos Zenyth 2000rt, Biochrom, Cambridge, UK), and the percentage of surviving cells was calculated from the absorbance of untreated cells. Each experiment was repeated at least three times, and each concentration was tested in at least three replicates. Data were presented as a graph of the percentage of surviving cells versus the concentration of the test substances. The meanings of 50% inhibition concentration (IC50) with standard deviation were calculated using GraphPad Prism Version 5.03 for Windows (GraphPad Software, San Diego, CA, USA).
(In general: Tetrazolium dyes change colour on reduction, which living cells bring about.)

Assay [2] can be described thus: LOOH accumulation in non-enzymatic peroxide oxidation of oleic acid. The settings on record: 65 °C; for LOOH, k0/k1 (relative rate constant of LOOH formation): 1 mmol/L additive, 3 h. The protocol:
The total antioxidant activity of compounds 1–6 during the oxidation of oleic acid with atmospheric oxygen at 65 °C for 3 h was determined by standard methods according to the level of accumulation of the main metabolites. Hydroperoxides as primary products (LOOH) and secondary LPO carbonyl products formed colored complexes with thiobarbituric acid (TBARS).
The kinetics of LOOH and TBARS formation was similar in the control test and in the presence of the studied compounds. The exponential kinetic curves of LOOH accumulation in oleic acid corresponded to the equation CLOOH = a × e^kt with correlation coefficients close to 1. It indicated a pseudo-first order of reaction in the substrate, inherent in a radical process with degenerate chain branching (Figure 2). The kinetic curves of secondary carbonyl products were linear and corresponded to the equation CTBARS = kt + b, with correlation coefficients close to 1 (Figure 3).
The determination of oleic acid oxidation level was performed by the kinetic measurement of the total concentration of the corresponding isomeric LOOH using iodometric titration. The oxidation of constant volume of the acid (15 mL) was carried out in a thermostatic cell using an air flow at 65 °C during 3 h. The oxidation proceeded in the conditions, the oxidation rate was independent of the air volume passing through the cell.
The concentrations of the additives were 1 mM compared with the initial concentration of LOOH in the reaction mixture. Oleic acid (1 mL), CHCl3 (12 mL), glacial AcOH (18 mL), and freshly prepared cold-saturated KI solution (1 mL) were placed in a flask and shaken for 2 min. Then distilled water (100 mL) and a 1% starch solution (1 mL) were added and the resulting mixture was immediately titrated with Na2S2O3 solution (0.01 N). Iodine released in an amount equivalent to that of LOOH was titrated with a standard thiosulfate solution. At the same time, a control test for reagents was carried out: all the reagents except for oleic acid were added to the flask. The LOOH concentration was calculated according to the following formula:
[LOOH] = [(Vs − Vc) × 0.001269 × K × 100]/m, where vs. is the volume of 0.01 N Na2S2O3 solution, consumed during the titration of working sample, mL; Vc is the volume of 0.01 N Na2S2O3 solution, consumed during the titration of control, mL; K is the conversion factor to exactly 0.01 N Na2S2O3 solution; m is the mass of studied oleic acid; and 0.001269 is the amount of I2 expressed in g, equivalent to 1 mL of 0.01 N Na2S2O3 solution. The [LOOH, mmol/L] content equal to 1% corresponded to 78.7 mM of active O2 per 1 L of lipids.

As to `c1ccc(SSc2ccccc2)cc1` [Compound 5, diphenyl disulfide], the “NBT, % Inhibition” value in assay [1] is reported as “non active”. In the assay with WI-38, this compound came in with an IC50 of 33.7 ± 9.1 µM.

Consider `CC(C)(C)c1cc(SSc2cc(C(C)(C)C)c(O)c(C(C)(C)C)c2)cc(C(C)(C)C)c1O` [Compound 6, bis(3,5-di-tert-butyl-4-hydroxyphenyl) disulfide], for which the “NBT, % Inhibition” value in assay [1] is listed as “not active; also recorded: non active”. The same compound showed an IC50 in the assay on WI-38 of 115 ± 75 µM.

As for `COc1ccccc1SSc1ccccc1OC` [Compound 2, bis(2-methoxyphenyl) disulfide], the “NBT, % Inhibition” value in assay [1] is reported as “not active; also recorded: non active”. Moreover, the “LOOH, k0/k1 (relative rate constant of LOOH formation)” value in assay [2] stood at 0.86 ± 0.11. Also, the IC50 with WI-38 was 31.9 ± 5.2 µM.

In the case of `COc1ccc(SSc2ccc(OC)c(OC)c2)cc1OC` [Compound 3, bis(3,4-dimethoxyphenyl) disulfide], the “NBT, % Inhibition” value in assay [1] is reported as 24.3 ± 0.05%. In the assay with WI-38, the IC50 is 32.8 ± 5.4 µM.

With `c1ccc(SSSc2ccccc2)cc1` [Compound 1, diphenyl trisulfide], in assay [1], the “NBT, % Inhibition” value was “non active”. Further, the “LOOH, k0/k1 (relative rate constant of LOOH formation)” value in assay [2] is reported as 0.78 ± 0.15. Also, in assay [2] (after 3 h incubation of oleic acid), the “LOOH accumulation, % of inhibition” value worked out at 22.5%. The IC50 in the assay on WI-38 came to 52.7 ± 8.5 µM.

As to `Oc1ccc(SSc2ccc(O)cc2)cc1` [Compound 4, 4,4′-dihydroxydiphenyl disulfide], in assay [1], the “NBT, % Inhibition” value is reported as 57.8 ± 0.07%. Further, the “LOOH, k0/k1 (relative rate constant of LOOH formation)” value in assay [2] was 0.61 ± 0.03. The compound further displayed an IC50 in the assay with WI-38 of 28.7 ± 5.3 µM.

As a reminder, the IC50 is the concentration that inhibits the measured activity by half. Low readings indicate higher potency, high ones lower potency.
